{"source": "ChEMBL document CHEMBL1155003", "about": "“Halicyclamine A, a marine spongean alkaloid as a lead for anti-tuberculosis agent” (2008)", "type_in_all_cases": "functional", "conditions_in_all_cases": "336 h", "key": {"[1]": {"test_system": "Mycobacterium tuberculosis", "assay": "Antitubercular activity against ethambutol-resistant Mycobacterium tuberculosis H37Rv ATCC 35837 after 14 days"}, "[2]": {"test_system": "Mycobacterium tuberculosis", "assay": "Antitubercular activity against isoniazid-resistant Mycobacterium tuberculosis H37Rv ATCC 35822 after 14 days"}, "[3]": {"test_system": "Mycobacterium tuberculosis", "assay": "Antitubercular activity against rifampicin-resistant Mycobacterium tuberculosis H37Rv ATCC 35838 after 14 days"}, "[4]": {"test_system": "Mycobacterium tuberculosis", "assay": "Antitubercular activity against streptomycin-resistant Mycobacterium tuberculosis H37Rv ATCC 35820 after 14 days"}}, "data": [{"smiles": "C1=C2CCCC/C=C\\C=C\\CCN3CC[C@@H]4[C@H](CCCCCC/C=C\\C=C/CCN(C2)C[C@H]14)C3", "note": "[HALICYCLAMINE A]", "values": [{"measurement": "MIC", "setting": "[1]", "value": 3.13, "unit": "µg/mL"}, {"measurement": "MIC", "setting": "[2]", "value": 3.13, "unit": "µg/mL"}, {"measurement": "MIC", "setting": "[3]", "value": 3.13, "unit": "µg/mL"}, {"measurement": "MIC", "setting": "[4]", "value": 6.25, "unit": "µg/mL"}]}]}
